Data from US10244756B2, “Fungicidal N-cycloalkyl-N-{[ortho-(1-substituted-cycloalkyl)heteroaryl]methyl}(thio)carboxamides” (Bayer CropScience Aktiengesellschaft, priority 2015, dated 2019).

Tests used:
Puccinia recondita = assay: In vivo preventive test on Puccinia recondita (brown rust on wheat); settings: Table A2, dose 100 ppm, evaluated 11 days after inoculation
Method: (§1) Example A: In Vivo Preventive Test on Puccinia Recondita (Brown Rust on Wheat) Solvent: 5% by volume of Dimethyl sulfoxide • 10% by volume of Acetone Emulsifier: 1 μL of Tween® 80 per mg of active ingredient The active ingredients are made soluble and homogenized in a mixture of Dimethyl sulfoxide/Acetone/Tween® 80 and then diluted in water to the desired concentration. The young plants of wheat are treated by spraying the active ingredient prepared as described above. Control plants are treated only with an aqueous solution of Acetone/Dimethyl sulfoxide/Tween® 80. After 24 hours, the plants are contaminated by spraying the leaves with an aqueous suspension of Puccinia recondita spores. The contaminated wheat plants are incubated for 24 hours at 20° C. and at 100% relative humidity and then for 10 days at 20° C. and at 70-80% relative humidity. The test is evaluated 11 days after the inoculation. 0% means an efficacy which corresponds to that of the control plants while an efficacy of 100% means that no disease is observed.

Uromyces appendiculatus = assay: In vivo preventive test on Uromyces appendiculatus (bean rust); settings: Table B2, dose 100 ppm, evaluated 11 days after inoculation
Method: as §1, with “B:” for “A:”, “Uromyces Appendiculatus (Bean Rust)” for “Puccinia Recondita (Brown Rust on Wheat)”, “bean” for “wheat”, “Uromyces appendiculatus” for “Puccinia recondita”

[1] = logP by HPLC on reversed-phase column (C 18), EEC Directive 79/831 Annex V.A8; type: physicochemical; settings: reversed-phase HPLC column (C 18), 40° C., 0.1% aqueous formic acid and acetonitrile, gradient 10% to 90% acetonitrile
Method: In table 1, the logP values were determined in accordance with EEC Directive 79/831 Annex V.A8 by HPLC (High Performance Liquid Chromatography) on a reversed-phase column (C 18), using the method described below: Temperature: 40° C.; Mobile phases: 0.1% aqueous formic acid and acetonitrile; linear gradient from 10% acetonitrile to 90% acetonitrile. Calibration was carried out using unbranched alkan-2-ones (comprising 3 to 16 carbon atoms) with known logP values (determination of the logP values by the retention times using linear interpolation between two successive alkanones). lambda-max-values were determined using UV-spectra from 200 nm to 400 nm and the peak values of the chromatographic signals.

| chromatographic logP [1] | SMILES | Efficacy (Puccinia recondita) | Efficacy (Uromyces appendiculatus) |
| --- | --- | --- | --- |
| – | CC(C)c1ncc(Cl)cc1CN(C(=O)c1cn(C)nc1C(F)F)C1CC1 [CMP1, N-[(5-chloro-2-isopropylpyridin-3-yl)methyl]-N-cyclopropyl-3-(difluoromethyl)-1-methyl-1H-pyrazole-4-carboxamide] | 0% | 0% |
| 3.39 | Cc1cc(C2(Cl)CC2)c(CN(C(=O)c2cn(C)nc2C(F)F)C2CC2)s1 [Example I.05, N-{[3-(1-chlorocyclopropyl)-5-methyl-2-thienyl]methyl}-N-cyclopropyl-3-(difluoromethyl)-1-methyl-1H-pyrazole-4-carboxamide] | – | – |
